Reference: US11191795B2, “Herbal compositions and methods for treating herpes” (priority 2019, dated 2021)

Tested on: cold sores
Type: in vivo, human

`Nc1nc2c(ncn2COCCO)c(=O)[nH]1` [acyclovir] was tested, and the “response of cold sores to treatment” value (Example 3, person, history, oral and topical) was “unresponsiveness” and the side effects (human, in vivo, po) was “dizziness”.
